According to the NIST ThermoML archive (doi:10.1016/j.jct.2012.08.010):
Numbers after ± are expanded uncertainties.

Assay: xn = mol fraction of the nth substance listed
Settings: 101 kPa, Liquid, Vibrating tube method

C=C[Si]1(C)O[Si](C)(C=C)O[Si](C)(C=C)O[Si](C)(C=C)O1 (stereo not given) [2,4,6,8-tetramethyl-2,4,6,8-tetravinylcycloterasiloxane] + CCc1ccccc1
mass density [kg/m3]
Settings	288.15 K	298.15 K	308.15 K	318.15 K	328.15 K
x1 = 0.0501	887.7 ± 0.1	878.79 ± 0.14	869.83 ± 0.14	860.83 ± 0.14	851.79 ± 0.14
x1 = 0.1045	902.53 ± 0.13	893.47 ± 0.13	884.37 ± 0.13	875.24 ± 0.14	866.11 ± 0.14
x1 = 0.1504	913.16 ± 0.13	904 ± 1	894.77 ± 0.13	885.58 ± 0.13	876.37 ± 0.13
x1 = 0.2005	923.2 ± 0.1	913.94 ± 0.13	904.59 ± 0.13	895.29 ± 0.13	885.99 ± 0.13
x1 = 0.2502	931.85 ± 0.12	922.49 ± 0.12	913.05 ± 0.13	903.69 ± 0.13	894.31 ± 0.13
x1 = 0.3023	939.76 ± 0.12	930.31 ± 0.12	920.8 ± 0.1	911.36 ± 0.13	901.91 ± 0.13
x1 = 0.3443	945.44 ± 0.12	935.9 ± 0.1	926.4 ± 0.1	916.84 ± 0.12	907.26 ± 0.13
x1 = 0.3988	952.02 ± 0.12	942.4 ± 0.1	932.8 ± 0.1	923.14 ± 0.12	913.48 ± 0.13
x1 = 0.4491	957.43 ± 0.12	947.75 ± 0.12	938.01 ± 0.12	928.31 ± 0.12	918.61 ± 0.12
x1 = 0.499	962.24 ± 0.12	952.49 ± 0.12	942.68 ± 0.12	932.88 ± 0.12	923.08 ± 0.12
x1 = 0.5497	966.67 ± 0.12	956.86 ± 0.12	946.99 ± 0.12	937.14 ± 0.12	927.3 ± 0.1
x1 = 0.5979	970.47 ± 0.12	960.6 ± 0.1	950.7 ± 0.1	940.8 ± 0.1	930.9 ± 0.1
x1 = 0.6498	974.27 ± 0.12	964.35 ± 0.12	954.39 ± 0.12	944.46 ± 0.12	934.51 ± 0.13
x1 = 0.6946	977.23 ± 0.12	967.27 ± 0.12	957.29 ± 0.12	947.3 ± 0.1	937.32 ± 0.13
x1 = 0.7486	980.54 ± 0.12	970.52 ± 0.12	960.48 ± 0.12	950.44 ± 0.13	940.38 ± 0.13
x1 = 0.7994	983.4 ± 0.1	973.34 ± 0.12	963.28 ± 0.12	953.21 ± 0.13	943.13 ± 0.13
x1 = 0.8489	985.97 ± 0.12	975.86 ± 0.12	965.78 ± 0.13	955.67 ± 0.13	945.56 ± 0.13
x1 = 0.9467	990.55 ± 0.13	980.33 ± 0.13	970.21 ± 0.13	960.03 ± 0.13	949.84 ± 0.13
x1 = 1	992.74 ± 0.13	982.54 ± 0.13	972.34 ± 0.13	962.14 ± 0.13	951.94 ± 0.13

C=C[Si]1(C)O[Si](C)(C=C)O[Si](C)(C=C)O[Si](C)(C=C)O1 (stereo not given) [2,4,6,8-tetramethyl-2,4,6,8-tetravinylcycloterasiloxane] + Cc1cccc(C)c1
mass density [kg/m3]
Settings	288.15 K	298.15 K	308.15 K	318.15 K	328.15 K
x1 = 0.05	885.05 ± 0.14	876.18 ± 0.14	867.36 ± 0.14	858.49 ± 0.14	849.53 ± 0.14
x1 = 0.1062	900.56 ± 0.13	891.58 ± 0.13	882.48 ± 0.14	873.4 ± 0.1	864.24 ± 0.14
x1 = 0.1505	910.91 ± 0.13	901.78 ± 0.13	892.55 ± 0.13	883.33 ± 0.13	874.04 ± 0.13
x1 = 0.2005	921.17 ± 0.12	911.87 ± 0.13	902.51 ± 0.13	893.18 ± 0.13	883.77 ± 0.13
x1 = 0.2501	930.07 ± 0.12	920.57 ± 0.12	911.13 ± 0.13	901.66 ± 0.13	892.14 ± 0.13
x1 = 0.3023	938.25 ± 0.12	928.62 ± 0.12	919.04 ± 0.12	909.46 ± 0.13	899.85 ± 0.13
x1 = 0.3442	944.08 ± 0.12	934.35 ± 0.12	924.72 ± 0.12	915.05 ± 0.12	905.37 ± 0.13
x1 = 0.3985	950.83 ± 0.12	941.02 ± 0.12	931.29 ± 0.12	921.55 ± 0.12	911.8 ± 0.1
x1 = 0.4491	956.41 ± 0.12	946.51 ± 0.12	936.74 ± 0.12	926.91 ± 0.12	917.12 ± 0.13
x1 = 0.499	961.37 ± 0.12	951.41 ± 0.12	941.59 ± 0.12	931.69 ± 0.12	921.85 ± 0.12
x1 = 0.5495	965.9 ± 0.1	955.89 ± 0.12	946 ± 1	936.07 ± 0.12	926.17 ± 0.13
x1 = 0.5981	969.84 ± 0.12	959.8 ± 0.1	949.86 ± 0.12	939.92 ± 0.12	929.94 ± 0.13
x1 = 0.6498	973.72 ± 0.12	963.58 ± 0.12	953.57 ± 0.12	943.62 ± 0.12	933.58 ± 0.13
x1 = 0.6946	976.79 ± 0.12	966.61 ± 0.12	956.57 ± 0.12	946.59 ± 0.12	936.5 ± 0.1
x1 = 0.7483	980.15 ± 0.12	969.99 ± 0.12	959.9 ± 0.1	949.87 ± 0.13	939.74 ± 0.13
x1 = 0.7983	983.05 ± 0.12	972.9 ± 0.1	962.78 ± 0.12	952.69 ± 0.13	942.58 ± 0.13
x1 = 0.8489	985.74 ± 0.12	975.61 ± 0.12	965.47 ± 0.13	955.35 ± 0.13	945.21 ± 0.13
x1 = 0.9463	990.44 ± 0.13	980.3 ± 0.1	970.11 ± 0.13	959.94 ± 0.13	949.75 ± 0.13
x1 = 1	992.74 ± 0.13	982.54 ± 0.13	972.34 ± 0.13	962.14 ± 0.13	951.94 ± 0.13
